Test results from patent publication US20240124417A1, “COMPOUNDS USEFUL AS IMMUNOMODULATORS” (Bristol-Myers Squibb Company, priority 2019, published 2024).

Target: T1, PD-1/PD-L1 (Homo sapiens, UniProt Q9NZQ7)
T1 construct: TVMV protease site linker (C); made in house; host or cells: HEK293T cells
Test: PD-1/PD-L1 Homogenous Time-Resolved Fluorescence (HTRF) binding assay
Details: PD-L1-His 10 nM, PD-1-Ig 20 nM
Outline: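 Inhibitors pre-incubated 15 min with PD-L1-His extracellular domain (10 nM final) in dPBS with 0.1% BSA and 0.05% Tween-20, then PD-1-Ig (20 nM final) added for a further 15 min. Read-out by HTRF with europium cryptate anti-Ig (1 nM) and APC anti-His (20 nM). Related pairs: PD-1-Ig/PD-L2-His (20/5 nM), CD80-His/PD-L1-Ig (100/10 nM).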

T1 sequence (Q9NZQ7 18-239): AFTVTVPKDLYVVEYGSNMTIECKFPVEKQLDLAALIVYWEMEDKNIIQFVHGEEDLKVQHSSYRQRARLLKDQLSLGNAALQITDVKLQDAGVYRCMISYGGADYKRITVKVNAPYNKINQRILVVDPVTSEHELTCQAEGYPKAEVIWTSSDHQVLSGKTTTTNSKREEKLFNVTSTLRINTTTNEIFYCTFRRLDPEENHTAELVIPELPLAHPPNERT

IC50 | SMILES
4.1 nM | Cc1c(COc2cc(OCc3cncc(C#N)c3)c(CNCc3ccncc3)cc2Cl)cccc1-c1cccc(OCCCN2CC[C@@H](O)C2)c1C [Example 2019, (R)-5-((4-chloro-5-((3′-(3-(3-hydroxypyrrolidin-1-yl)propoxy)-2,2′-dimethyl-[1,1′-biphenyl]-3-yl)methoxy)-2-(((pyridin-4-ylmethyl)amino)methyl)phenoxy)methyl)nicotinonitrile]
2.5 nM | Cc1c(COc2cc(OCc3cncc(C#N)c3)c(CN(C)Cc3cncnc3)cc2Cl)cccc1-c1cccc(OCCCN2CC[C@@H](O)C2)c1C [Example 2032, (R)-5-((4-chloro-5-((3′-(3-(3-hydroxypyrrolidin-1-yl)propoxy)-2,2′-dimethyl-[1,1′-biphenyl]-3-yl)methoxy)-2-((methyl(pyrimidin-5-ylmethyl)amino)methyl)phenoxy)methyl)nicotinonitrile]
2.3 nM | Cc1c(COc2cc(OCc3cncc(C#N)c3)c(CN(C)Cc3nn(C)cc3Cl)cc2Cl)cccc1-c1cccc(OCCCN2CC[C@@H](O)C2)c1C [Example 2027, (R)-5-((4-chloro-2-((((4-chloro-1-methyl-1H-pyrazol-3-yl)methyl)(methyl)amino)methyl)-5-((3′-(3-(3-hydroxypyrrolidin-1-yl)propoxy)-2,2′-dimethyl-[1,1′-biphenyl]-3-yl)methoxy)phenoxy)methyl)nicotinonitrile]
4.7 nM | Cc1c(COc2cc(OCc3cncc(C#N)c3)c(CNC(C)(C)c3ncon3)cc2Cl)cccc1-c1cccc(OCC2CCCN(C)C2)c1Cl (stereo not drawn) [Example 2620, 5-((2-(((2-(1,2,4-oxadiazol-3-yl)propan-2-yl)amino)methyl)-4-chloro-5-((2′-chloro-2-methyl-3′-((1-methylpiperidin-3-yl)methoxy)-[1,1′-biphenyl]-3-yl)methoxy)phenoxy)methyl)nicotinonitrile]
2.7 nM | Cc1c(COc2cc(OCc3cncc(C#N)c3)c(CNCc3cnccn3)cc2Cl)cccc1-c1cccc(OCCCN2CC[C@@H](O)C2)c1C [Example 2020, (R)-5-((4-chloro-5-((3′-(3-(3-hydroxypyrrolidin-1-yl)propoxy)-2,2′-dimethyl-[1,1′-biphenyl]-3-yl)methoxy)-2-(((pyrazin-2-ylmethyl)amino)methyl)phenoxy)methyl)nicotinonitrile]
0.4 nM | Cc1c(COc2cc(OCc3cncc(C#N)c3)c(CNCc3nn(C)c4ccccc34)cc2Cl)cccc1-c1cccc(OCCCN2CC[C@@H](O)C2)c1C [Example 2555, (R)-5-((4-chloro-5-((3′-(3-(3-hydroxypyrrolidin-1-yl)propoxy)-2,2′-dimethyl-[1,1′-biphenyl]-3-yl)methoxy)-2-((((1-methyl-1H-indazol-3-yl)methyl)amino)methyl)phenoxy)methyl)nicotinonitrile]
3.1 nM | Cc1c(COc2cc(OCc3cccnn3)c(CNCc3ncc[nH]3)cc2Cl)cccc1-c1cccc(OCC2CCCN(C)C2)c1Cl (stereo not drawn) [Example 2055, N-((1H-imidazol-2-yl)methyl)-1-(5-chloro-4-((2′-chloro-2-methyl-3′-((1-methylpiperidin-3-yl)methoxy)-[1,1′-biphenyl]-3-yl)methoxy)-2-(pyridazin-3-ylmethoxy)phenyl)methanamine]
0.5 nM | CC(=O)NC1CCN(CCCOc2cccc(-c3cccc(COc4cc(OCc5cncc(C#N)c5)c(CN5CCCCC5c5nnn[nH]5)cc4Cl)c3C)c2C)CC1 (stereo not drawn) [Example 1048, N-(1-(3-((3′-((4-((2-(1H-Tetrazol-5-yl)piperidin-1-yl)methyl)-2-chloro-5-((5-cyano-pyridin-3-yl)methoxy)phenoxy)methyl)-2,2′-dimethyl-[1,1′-biphenyl]-3-yl)oxy)propyl)-piperidin-4-yl)acetamide]
0.5 nM | Cc1c(COc2cc(OCc3cncc(C#N)c3)c(CNC3CCc4[nH]ncc4C3)cc2Cl)cccc1-c1cccc(OCCCN2CC[C@@H](O)C2)c1C (stereo partly drawn) [Example 2563, 5-((4-chloro-5-((3′-(3-((R)-3-hydroxypyrrolidin-1-yl)propoxy)-2,2′-dimethyl-[1,1′-biphenyl]-3-yl)methoxy)-2-(((4,5,6,7-tetrahydro-1H-indazol-5-yl)amino)methyl)phenoxy)methyl)nicotinonitrile]
2 nM | COCc1noc(CNCc2cc(Cl)c(OCc3cccc(-c4cccc(OCC5CCCN(C)C5)c4Cl)c3C)cc2OCc2cncc(C#N)c2)n1 (stereo not drawn) [Example 2595, 5-((4-chloro-5-((2′-chloro-2-methyl-3′-((1-methylpiperidin-3-yl)methoxy)-[1,1′-biphenyl]-3-yl)methoxy)-2-((((3-(methoxymethyl)-1,2,4-oxadiazol-5-yl)methyl)amino)methyl)phenoxy)methyl)nicotinonitrile]
2.3 nM | CC(=O)NC1CCN(CCCOc2cccc(-c3cccc(COc4cc(OCc5cncc(C#N)c5)c(CN(C)C(C)c5nnn[nH]5)cc4Cl)c3C)c2C)CC1 (stereo not drawn) [Example 1040, N-(1-(3-((3′-((4-(((1-(1H-Tetrazol-5-yl)ethyl)(methyl)amino)methyl)-2-chloro-5-((5-cyanopyridin-3-yl)methoxy)phenoxy)methyl)-2,2′-dimethyl-[1,1′-biphenyl]-3-yl)oxy)-propyl)piperidin-4-yl)acetamide]
22.8 nM | Cc1c(COc2cc(OCc3cncc(C#N)c3)c(CN3CCc4c(cnn4-c4ccccc4)C3)cc2Cl)cccc1-c1cccc(OCCCN2CC[C@@H](O)C2)c1C [Example 2567, (R)-5-((4-chloro-5-((3′-(3-(3-hydroxypyrrolidin-1-yl)propoxy)-2,2′-dimethyl-[1,1′-biphenyl]-3-yl)methoxy)-2-((1-phenyl-1,4,6,7-tetrahydro-5H-pyrazolo[4,3-c]pyridin-5-yl)methyl)phenoxy)methyl)nicotinonitrile]
192 nM | Cc1c(COc2cc(OCc3cncc(C#N)c3)c(CN(C)Cc3cc(-c4ccccc4)on3)cc2Cl)cccc1-c1cccc(OCCCN2CC[C@@H](O)C2)c1C [Example 2543, (R)-5-((4-chloro-5-((3′-(3-(3-hydroxypyrrolidin-1-yl)propoxy)-2,2′-dimethyl-[1,1′-biphenyl]-3-yl)methoxy)-2-((methyl((5-phenylisoxazol-3-yl)methyl)amino)methyl)phenoxy)methyl)nicotinonitrile]
2.2 nM | Cc1c(COc2cc(OCc3cncc(C#N)c3)c(CNCCc3nc4cc(Cl)ccc4[nH]3)cc2Cl)cccc1-c1cccc(OCC2CCCN(C)C2)c1Cl (stereo not drawn) [Example 2613, 5-((4-chloro-2-(((2-(5-chloro-1H-benzo[d]imidazol-2-yl)ethyl)amino)methyl)-5-((2′-chloro-2-methyl-3′-((1-methylpiperidin-3-yl)methoxy)-[1,1′-biphenyl]-3-yl)methoxy)phenoxy)methyl)nicotinonitrile]
2.4 nM | CC(=O)NC1CCN(CCCOc2cccc(-c3cccc(COc4cc(OCc5cncc(C#N)c5)c(CN(C)CC(C)c5nn[nH]n5)cc4Cl)c3C)c2C)CC1 (stereo not drawn) [Example 1047, N-(1-(3-((3′-((4-(((2-(2H-Tetrazol-5-yl)propyl)(methyl)amino)methyl)-2-chloro-5-((5-cyanopyridin-3-yl)methoxy)phenoxy)methyl)-2,2′-dimethyl-[1,1′-biphenyl]-3-yl)oxy)-propyl)piperidin-4-yl)acetamide]
7.2 nM | Cc1c(COc2cc(OCc3cncc(C#N)c3)c(CNCc3c[nH]cn3)cc2Cl)cccc1-c1cccc(OCCCN2CC[C@@H](O)C2)c1C [Example 2003, (R)-5-((2-((((1H-imidazol-4-yl)methyl)amino)methyl)-4-chloro-5-((3′-(3-(3-hydroxypyrrolidin-1-yl)propoxy)-2,2′-dimethyl-[1,1′-biphenyl]-3-yl)methoxy)phenoxy)methyl)nicotinonitrile]
3.1 nM | Cc1nc(CNCc2cc(Cl)c(OCc3cccc(-c4cccc(OCCCN5CC[C@@H](O)C5)c4C)c3C)cc2OCc2cncc(C#N)c2)no1 [Example 2540, (R)-5-((4-chloro-5-((3′-(3-(3-hydroxypyrrolidin-1-yl)propoxy)-2,2′-dimethyl-[1,1′-biphenyl]-3-yl)methoxy)-2-((((5-methyl-1,2,4-oxadiazol-3-yl)methyl)amino)methyl)phenoxy)methyl)nicotinonitrile]
7.2 nM | Cc1nc2c(s1)CN(Cc1cc(Cl)c(OCc3cccc(-c4cccc(OCC5CCCN(C)C5)c4Cl)c3C)cc1OCc1cncc(C#N)c1)CC2 (stereo not drawn) [Example 2600, 5-((4-chloro-5-((2′-chloro-2-methyl-3′-((1-methylpiperidin-3-yl)methoxy)-[1,1′-biphenyl]-3-yl)methoxy)-2-((2-methyl-6,7-dihydrothiazolo[5,4-c]pyridin-5(4H)-yl)methyl)phenoxy)methyl)nicotinonitrile]
2.9 nM | CCN(CCO)CCCOc1cccc(-c2cccc(COc3cc(OCc4cncc(C#N)c4)c(CNCc4c[nH]cn4)cc3Cl)c2C)c1C [Example 2033, 5-((2-((((1H-imidazol-4-yl)methyl)amino)methyl)-4-chloro-5-((3′-(3-(ethyl(2-hydroxyethyl)amino)propoxy)-2,2′-dimethyl-[1,1′-biphenyl]-3-yl)methoxy)phenoxy)methyl)nicotinonitrile]
0.2 nM | Cc1c(COc2cc(OCc3cncc(C#N)c3)c(CN(C)Cc3ncn[nH]3)cc2Cl)cccc1-c1cccc(OCCCN2CC[C@@H](O)C2)c1C [Example 2006, (R)-5-((2-((((1H-1,2,4-triazol-5-yl)methyl)(methyl)amino)methyl)-4-chloro-5-((3′-(3-(3-hydroxypyrrolidin-1-yl)propoxy)-2,2′-dimethyl-[1,1′-biphenyl]-3-yl)methoxy)phenoxy)methyl)nicotinonitrile]
> 10000 nM | Cc1c(COc2cc(OCc3ncn(C(c4ccccc4)(c4ccccc4)c4ccccc4)c3C)c(CNCc3ccnc(C#N)n3)cc2Cl)cccc1-c1cccc(OCCCN2CC[C@@H](O)C2)c1C [Example 2043, (R)-4-(((5-chloro-4-((3′-(3-(3-hydroxypyrrolidin-1-yl)propoxy)-2,2′-dimethyl-[1,1′-biphenyl]-3-yl)methoxy)-2-((5-methyl-1-trityl-1H-imidazol-4-yl)methoxy)benzyl)amino)methyl)pyrimidine-2-carbonitrile]
